Measurements published in PMC10620772, “Design, synthesis, and biological evaluation of new pyrimidine-5-carbonitrile derivatives as novel anti-cancer, dual EGFR^WT/COX-2 inhibitors with docking studies” (RSC Advances, 2023).

Columns and labels:
Test in all cases: NCI60 antitumor screening
Assay type in all cases: cell-based, human
[1] = system: SNB-19; conditions: five-dose
[2] = system: SNB-75
[3] = system: MALME-3M
[4] = system: SK-MEL-2; conditions: Homo sapiens; 10 μM single dose; SK-MEL-2 (melanoma); read-out: growth inhibition percent (GI%)
[5] = system: SK-MEL-28; conditions: Homo sapiens; 10 μM single dose; SK-MEL-28 (melanoma); read-out: growth inhibition percent (GI%)
[6] = system: SK-MEL-5
[7] = system: UACC-257
[8] = system: OVCAR-4
[9] = system: OVCAR-8
[10] = system: NCI/ADR-RES
[11] = system: SK-OV-3
[12] = system: 786–0
[13] = system: ACHN
[14] = system: SN12C
[15] = system: UO-31
[16] = system: PC-3
[17] = system: DU-145
[18] = system: MCF7
[19] = system: HS 578T
[20] = system: MDA-MB-468
[21] = Homo sapiens, OVCAR-4, five-dose
[22] = Homo sapiens, MDA-MB-468, five-dose

N#Cc1c(-c2ccc(F)cc2)nc(SCc2ccc(F)cc2)nc1N1CCNCC1 [4f, 2-((4-Fluorobenzyl)thio)-4-(4-fluorophenyl)-6-(piperazin-1-yl) pyrimidine-5-carbonitrile]
TGI [1]: 29.40 µM | GI% ([2]; 10 μM one-dose): 80.66% | inhibition at 10 µM ([2]; Homo sapiens, 10 μM single dose, SNB-75 (CNS cancer), read-out: growth inhibition percent (GI%)): 80.7% | GI50 ([3]; Homo sapiens, Malme-3M, five-dose): 14.7 µM | CC50 ([3]; Homo sapiens, Malme-3M, five-dose, read-out: LC50 (the source's name)): 54.8 µM | inhibition at 10 µM ([3]; Homo sapiens, 10 μM single dose, MALME-3M (melanoma), read-out: growth inhibition percent (GI%)): > 100% | TGI ([3]; five-dose): 28.40 µM | inhibition at 10 µM [4]: > 100% | inhibition at 10 µM [5]: > 100% | GI50 ([6]; Homo sapiens, SK-MEL-5, five-dose): 16.8 µM | CC50 ([6]; Homo sapiens, SK-MEL-5, five-dose, read-out: LC50 (the source's name)): 55.4 µM | inhibition at 10 µM ([6]; Homo sapiens, 10 μM single dose, SK-MEL-5 (melanoma), read-out: growth inhibition percent (GI%)): > 100% | TGI ([6]; five-dose): 30.50 µM | GI50 ([7]; Homo sapiens, UACC-257, five-dose): 14.8 µM | CC50 ([7]; Homo sapiens, UACC-257, five-dose, read-out: LC50 (the source's name)): 55.8 µM | inhibition at 10 µM ([7]; Homo sapiens, 10 μM single dose, UACC-257 (melanoma), read-out: growth inhibition percent (GI%)): > 100% | TGI ([7]; five-dose): 28.70 µM | GI50 [8, 21]: 16.5 µM | LC50 (lethal concentration, 50% cell kill) [8, 21]: 68.7 µM | inhibition at 10 µM ([8]; Homo sapiens, 10 μM single dose, OVCAR-4 (ovarian cancer), read-out: growth inhibition percent (GI%)): > 100% | TGI ([8]; five-dose): 33.60 µM | GI50 ([9]; Homo sapiens, OVCAR-8, five-dose): 13.2 µM | CC50 ([9]; Homo sapiens, OVCAR-8, five-dose, read-out: LC50 (the source's name)): 70.6 µM | inhibition at 10 µM ([9]; Homo sapiens, 10 μM single dose, OVCAR-8 (ovarian cancer), read-out: growth inhibition percent (GI%)): > 100% | TGI ([9]; five-dose): 30.50 µM | GI50 ([10]; Homo sapiens, NCI/ADR-RES, five-dose): 13.7 µM | CC50 ([10]; Homo sapiens, NCI/ADR-RES, five-dose, read-out: LC50 (the source's name)): 67.5 µM | inhibition at 10 µM ([10]; Homo sapiens, 10 μM single dose, NCI/ADR-RES (ovarian cancer), read-out: growth inhibition percent (GI%)): > 100% | TGI ([10]; five-dose): 30.40 µM | GI50 ([11]; Homo sapiens, SK-OV-3, five-dose): 16 µM | CC50 ([11]; Homo sapiens, SK-OV-3, five-dose, read-out: LC50 (the source's name)): 55.4 µM | inhibition at 10 µM ([11]; Homo sapiens, 10 μM single dose, SK-OV-3 (ovarian cancer), read-out: growth inhibition percent (GI%)): 43.3% | TGI ([11]; five-dose): 29.80 µM | GI50 ([12]; Homo sapiens, 786-0, five-dose): 13.8 µM | LC50 (concentration killing 50% of tumour cells) ([12]; Homo sapiens, 786-0, five-dose): 62.6 µM | inhibition at 10 µM ([12]; Homo sapiens, 10 μM single dose, 786–0 (renal cancer), read-out: growth inhibition percent (GI%)): > 100% | TGI ([12]; five-dose): 29.30 µM | GI50 ([13]; Homo sapiens, ACHN, five-dose): 15 µM | LC50 ([13]; Homo sapiens, ACHN, five-dose): 54.5 µM | inhibition at 10 µM ([13]; Homo sapiens, 10 μM single dose, ACHN (renal cancer), read-out: growth inhibition percent (GI%)): > 100% | TGI ([13]; five-dose): 28.60 µM | GI50 ([14]; Homo sapiens, SN12C, five-dose): 15.3 µM | CC50 ([14]; Homo sapiens, SN12C, five-dose, read-out: LC50 (the source's name)): 55.2 µM | inhibition at 10 µM ([14]; Homo sapiens, 10 μM single dose, SN12C (renal cancer), read-out: growth inhibition percent (GI%)): > 100% | TGI ([14]; five-dose): 29.00 µM | GI% ([15]; 10 μM one-dose): 91.74% | inhibition at 10 µM ([15]; Homo sapiens, 10 μM single dose, UO-31 (renal cancer), read-out: growth inhibition percent (GI%)): 91.7% | GI% ([16]; 10 μM one-dose): 88.74% | GI50 ([16]; Homo sapiens, PC-3, five-dose): 12.5 µM | CC50 ([16]; Homo sapiens, PC-3, five-dose, read-out: LC50 (the source's name)): 61.3 µM | inhibition at 10 µM ([16]; Homo sapiens, 10 μM single dose, PC-3 (prostate cancer), read-out: growth inhibition percent (GI%)): 88.7% | TGI ([16]; five-dose): 27.70 µM | GI50 ([17]; Homo sapiens, DU-145, five-dose): 16.8 µM | CC50 ([17]; Homo sapiens, DU-145, five-dose, read-out: LC50 (the source's name)): 58.1 µM | inhibition at 10 µM ([17]; Homo sapiens, DU-145, read-out: growth inhibition percent (GI%)): > 100% | TGI ([17]; five-dose): 31.30 µM | GI50 ([18]; Homo sapiens, MCF7, five-dose): 6.43 µM | CC50 ([18]; Homo sapiens, MCF7, five-dose, read-out: LC50 (the source's name)): 50.1 µM | inhibition at 10 µM ([18]; Homo sapiens, 10 μM single dose, MCF7 (breast cancer), read-out: growth inhibition percent (GI%)): > 100% | TGI ([18]; five-dose): 20.20 µM | GI50 ([19]; Homo sapiens, Hs-578T, five-dose): 15.6 µM | CC50 ([19]; Homo sapiens, Hs-578T, five-dose, read-out: LC50 (the source's name)): 77 µM | inhibition at 10 µM ([19]; Homo sapiens, 10 μM single dose, HS 578T (breast cancer), read-out: growth inhibition percent (GI%)): > 100% | TGI ([19]; five-dose): 34.60 µM | GI50 [20, 22]: 12.4 µM | LC50 [20, 22]: 55.3 µM | inhibition at 10 µM ([20]; Homo sapiens, 10 μM single dose, MDA-MB-468 (breast cancer), read-out: growth inhibition percent (GI%)): > 100% | TGI ([20]; five-dose): 26.20 µM
